{"source": "paper PMC4950071", "about": "“Reaction of pyranose dehydrogenase from Agaricus meleagris with its carbohydrate substrates” (The Febs Journal, 2015)", "test_in_all_cases": "steady-state kinetics, ferrocenium reduction", "format_in_all_cases": "biochemical", "key": {"[1]": {"biological_target": "T1, AmPDH (pyranose dehydrogenase from Agaricus meleagris; A. meleagris PDH1) (Macropsalliota meleagris, UniProt Q3L245, H581A)", "T1 construct": "C-terminal His6 tag; covalent FAD", "T1 sequence (Q3L245 26-602 H581A)": "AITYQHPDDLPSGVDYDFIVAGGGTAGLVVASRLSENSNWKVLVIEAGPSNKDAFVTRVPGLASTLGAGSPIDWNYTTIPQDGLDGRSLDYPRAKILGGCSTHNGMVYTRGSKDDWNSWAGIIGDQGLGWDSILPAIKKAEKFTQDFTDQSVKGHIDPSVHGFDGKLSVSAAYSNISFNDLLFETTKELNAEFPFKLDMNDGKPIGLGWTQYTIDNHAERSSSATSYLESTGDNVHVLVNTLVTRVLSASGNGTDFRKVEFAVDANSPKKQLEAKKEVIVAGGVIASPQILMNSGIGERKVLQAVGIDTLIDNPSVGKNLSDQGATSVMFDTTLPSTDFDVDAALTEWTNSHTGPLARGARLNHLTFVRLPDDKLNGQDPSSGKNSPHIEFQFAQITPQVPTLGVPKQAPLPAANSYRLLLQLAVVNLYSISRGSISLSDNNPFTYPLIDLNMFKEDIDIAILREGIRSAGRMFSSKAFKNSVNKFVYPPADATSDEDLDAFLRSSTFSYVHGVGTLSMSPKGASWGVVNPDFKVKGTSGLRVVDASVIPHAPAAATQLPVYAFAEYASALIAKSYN", "settings": "apparent; electron acceptor; 500 mM glucose fixed, 100 mM borate pH 8.5, 30 °C; read-out: Fc^+ / K M", "from_the_text": "(§1) steady-state kinetics, ferrocenium reduction on AmPDH (pyranose dehydrogenase from Agaricus meleagris; A. meleagris PDH1)"}, "[2]": {"biological_target": "T2, AmPDH (pyranose dehydrogenase from Agaricus meleagris; A. meleagris PDH1) (Macropsalliota meleagris, UniProt Q3L245)", "T2 construct": "C-terminal His6 tag; covalent FAD", "T2 sequence (Q3L245 26-602)": "as the sequence (Q3L245 26-602 H581A) above, with A556H counted along it", "settings": "apparent; electron acceptor; 25 mM glucose fixed, 100 mM borate pH 8.5, 30 °C; read-out: Fc^+ / K M", "from_the_text": "as §1"}, "[3]": {"biological_target": "T3, AmPDH (pyranose dehydrogenase from Agaricus meleagris; A. meleagris PDH1) (Macropsalliota meleagris, UniProt Q3L245, H128A)", "T3 construct": "C-terminal His6 tag; covalent FAD", "T3 sequence (Q3L245 26-602 H128A)": "as the sequence (Q3L245 26-602 H581A) above, with H103A, A556H counted along it", "settings": "apparent; electron acceptor; 50 mM glucose fixed, 100 mM borate pH 8.5, 30 °C; non-covalently bound FAD; read-out: Fc^+ / K M", "from_the_text": "as §1"}}, "data": [{"smiles": "C1=CCC=C1.C1=CCC=C1.[Fe+3]", "note": "[Fc^+, ferrocenium ion]", "values": [{"measurement": "Km", "setting": "[1]", "value": "170 ± 10", "unit": "µM"}, {"measurement": "Km", "setting": "[2]", "value": "170 ± 20", "unit": "µM"}, {"measurement": "Km", "setting": "[3]", "value": "160 ± 10", "unit": "µM"}]}]}
